The source of these data is ChEMBL document CHEMBL1201862, “PubChem BioAssay data set” (2004).

Among the test systems are HCC 2998; Malme-3M; MOLT-4; HL-60; SF-268; M14; SW-620; TK-10; HOP-92; K562; NCI-H226; NCI-H460; SK-OV-3; HCT-15; COLO 205; OVCAR-3; SF-539; SK-MEL-2; RXF 393.
Assay in all cases: growth of human tumour cells (NCI), 48 h

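48-hour exposure; five concentrations; linearly interpolated endpoints. GI50 = concentration required for 50% inhibition of growth.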 The source made the active and inactive calls. Cut-off read from the data, not from the text of the source: active = GI50 up to about 1.1 µM and inactive = higher. Where only a bound is given, the exact number is not on record here.

As to `CC(C)=C[C@@H]1C[C@H](C)[C@H]2CC[C@H](C)[C@H]3C(=O)C(O)=C(C)C(=O)[C@]123`, the GI50 with HCC 2998, in the assay on Malme-3M, in the assay on MOLT-4, in the assay on HL-60, in the assay on SF-268 and in the assay with M14 was > 100 µM (inactive) in each case. Further, the GI50 in the assay on SW-620 is > 100 µM (inactive); with TK-10 it was > 100 µM (inactive); in the assay with HOP-92, 42.7 µM (inactive); with K562, > 100 µM (inactive); in the assay on NCI-H226, 87.3 µM (inactive); in the assay on NCI-H460, > 100 µM (inactive). In addition, the GI50 was > 100 µM (inactive) with SK-OV-3; more than 100 µM in the assay with HCT-15; > 100 µM (inactive) in the assay on COLO 205; > 100 µM (inactive) in the assay with OVCAR-3; > 100 µM (inactive) in the assay on SF-539.
As for `C=C1N(C)c2ccc(S(=O)(=O)c3ccc4c(c3)C(C)(C)C(=C)N4C)cc2C1(C)C`, the GI50 was 41.3 µM (inactive) with SK-MEL-2; 34.5 µM (inactive) in the assay with HCC 2998; 19.5 µM (inactive) with Malme-3M; 18 µM (inactive) in the assay on MOLT-4; 27.3 µM (inactive) in the assay with HL-60; 36.6 µM (inactive) in the assay with SF-268. Besides, the GI50 is 31.2 µM (inactive) in the assay with M14; 45 µM (inactive) with SW-620; 36.1 µM (inactive) in the assay with TK-10; 3.85 µM (inactive) with HOP-92; > 100 µM (inactive) in the assay with NCI-H226; 49.8 µM (inactive) in the assay on NCI-H460. Further, the GI50 was > 100 µM (inactive) in the assay on SK-OV-3; 59.7 µM in the assay on HCT-15; 16.3 µM (inactive) with COLO 205; 25.4 µM (inactive) with OVCAR-3; > 100 µM (inactive) with SF-539.
Take `CCCNC(=O)C(C)C1CCC2(C)C=CC(=O)C(C)=C2C1O` (stereo not drawn): the GI50 in the assay with SK-MEL-2, in the assay on HCC 2998, in the assay on MOLT-4, with HL-60, in the assay on SF-268 and in the assay with SW-620 was > 100 µM (inactive) throughout. Also, the GI50 with HOP-92, in the assay on K562, with NCI-H226, in the assay with NCI-H460, with RXF 393 and with SK-OV-3 was > 100 µM (inactive) throughout. Further, the GI50 with HCT-15 is more than 100 µM; in the assay on COLO 205, > 100 µM (inactive); in the assay with OVCAR-3, > 100 µM (inactive); in the assay with SF-539, > 100 µM (inactive).
Take `CC/C=C(\C(=C/CC)[N+](=O)[O-])[N+](=O)[O-]`: the GI50 was 47.5 µM (inactive) in the assay on SK-MEL-2; 19.4 µM (inactive) in the assay with HCC 2998; 42.7 µM (inactive) in the assay with MOLT-4; 13.4 µM (inactive) with M14; 17.1 µM (inactive) in the assay with SW-620; 18.1 µM (inactive) in the assay on TK-10. Moreover, the GI50 in the assay with HOP-92 is 23.7 µM (inactive); in the assay with K562, 30.3 µM (inactive); with NCI-H226, 95.5 µM (inactive); in the assay on NCI-H460 it was 18 µM (inactive); in the assay with RXF 393, 14.9 µM (inactive); in the assay on SK-OV-3, > 100 µM (inactive). In addition, the GI50 with COLO 205 is 17.8 µM (inactive); with OVCAR-3, 16.1 µM (inactive); in the assay with SF-539 it was 21.3 µM (inactive).
Take `CC(=O)Nc1cccc2[nH]c3ccccc3c(=O)c12`: the GI50 with SK-MEL-2 is 18.6 µM (inactive); in the assay on Malme-3M, 22.3 µM (inactive); in the assay with MOLT-4 it was 17.1 µM (inactive); in the assay with HL-60, 12.6 µM (inactive); with SF-268, 26.7 µM (inactive); in the assay with M14 it was 30.9 µM (inactive). Moreover, the GI50 with SW-620 was 21.4 µM (inactive); in the assay with TK-10 it was 20.4 µM (inactive); with K562 it was 21.8 µM (inactive); in the assay with NCI-H226 it was 14.8 µM (inactive); in the assay with NCI-H460, 17 µM (inactive); in the assay with SK-OV-3, 32.1 µM (inactive). For the same molecule, the GI50 with HCT-15 is 14.2 µM; in the assay with COLO 205, 16.3 µM (inactive); with OVCAR-3, 20.1 µM (inactive); with SF-539, 21.6 µM (inactive).
As for `O=S(=O)(N/C(=N\O)Nc1ccc(Cl)cc1)c1cc2ccccc2s1`, the GI50 is 15.8 µM (inactive) in the assay with SK-MEL-2; 15.6 µM (inactive) in the assay with Malme-3M; 16.2 µM (inactive) with MOLT-4; 11.7 µM (inactive) in the assay on HL-60; 15.2 µM (inactive) in the assay with SF-268; 17.9 µM (inactive) with M14. The GI50 in the assay on SW-620 is 23.7 µM (inactive); in the assay with TK-10, 19.4 µM (inactive); with HOP-92, 18.3 µM (inactive); in the assay with K562, 27.9 µM (inactive); in the assay on NCI-H226, 15.4 µM (inactive); in the assay on NCI-H460, 31.8 µM (inactive). The GI50 in the assay with RXF 393 is 15.1 µM (inactive); in the assay with SK-OV-3 it was 16.7 µM (inactive); with HCT-15, 18 µM; in the assay with COLO 205, 15.2 µM (inactive); in the assay on OVCAR-3 it was 15 µM (inactive); in the assay with SF-539, 18.5 µM (inactive).
For the molecule `CC12CCC3C(CCC4=CC(O)CCC43C=O)C1(O)CCC2c1ccc(=O)oc1` (stereo not drawn), the GI50 in the assay on SK-MEL-2 was 0.0116 µM (active); in the assay with HCC 2998 it was 0.021 µM (active); in the assay on HL-60 it was 0.00395 µM (active); in the assay with SW-620, 0.05 µM (active); with HOP-92, 0.0164 µM (active); with K562, 0.05 µM (active). Besides, the GI50 is 0.0303 µM (active) in the assay with NCI-H226; 0.00182 µM (active) in the assay with NCI-H460; 0.0113 µM (active) in the assay on SK-OV-3; 0.0508 µM in the assay with HCT-15; 0.0169 µM (active) in the assay on COLO 205; 0.00368 µM (active) with OVCAR-3. In addition, the GI50 with SF-539 is 0.00385 µM (active).
On to `CC1=N/C(=C/c2ccc3c(c2)OCO3)C(=O)O1`, for which the GI50 in the assay with SK-MEL-2, with Malme-3M, in the assay on MOLT-4, in the assay with SF-268, in the assay with M14 and in the assay on SW-620 was > 100 µM (inactive) in each case. Further, the GI50 in the assay with TK-10 was > 100 µM (inactive); in the assay on HOP-92, > 100 µM (inactive); with K562, > 100 µM (inactive); with RXF 393 it was > 100 µM (inactive); in the assay with SK-OV-3, > 100 µM (inactive); in the assay on HCT-15, more than 100 µM. Also, the GI50 with COLO 205, in the assay on OVCAR-3 and in the assay on SF-539 was > 100 µM (inactive) each time.
Consider `CCC1C(=O)C[C@H]2[C@@H]3C(O)CC4=CC(=O)CC[C@]4(C)[C@H]3CC[C@]12C` (stereo partly drawn), for which the GI50 is > 50 µM (inactive) in the assay with SK-MEL-2; > 50 µM (inactive) in the assay on HCC 2998; 25.8 µM (inactive) with Malme-3M; > 50 µM (inactive) in the assay with MOLT-4; > 50 µM (inactive) in the assay on HL-60; > 50 µM (inactive) with SF-268. The GI50 in the assay on M14, in the assay on SW-620, in the assay with TK-10, in the assay with HOP-92, in the assay with K562 and in the assay with NCI-H460 was > 50 µM (inactive) each time. Besides, the GI50 in the assay on SK-OV-3 is > 50 µM (inactive); with HCT-15, more than 50 µM; in the assay on COLO 205 it was > 50 µM (inactive); in the assay with OVCAR-3, > 50 µM (inactive); with SF-539 it was > 50 µM (inactive).
For the molecule `Cc1cc(N(CCC#N)CCC#N)ccc1/N=N/c1cc(Cl)ccc1Cl`, the GI50 is 17.3 µM (inactive) with SK-MEL-2; 16.6 µM (inactive) in the assay with HCC 2998; 4.98 µM (inactive) in the assay with Malme-3M; 5.13 µM (inactive) with MOLT-4; 3.39 µM (inactive) in the assay with HL-60; 15.6 µM (inactive) in the assay with SF-268. Also, the GI50 is 3.46 µM (inactive) with M14; 2.36 µM (inactive) in the assay on SW-620; 11.1 µM (inactive) in the assay with TK-10; 2.78 µM (inactive) with K562; 6.38 µM (inactive) in the assay on NCI-H226; 10.5 µM (inactive) in the assay with RXF 393. For the same molecule, the GI50 with SK-OV-3 was 16.3 µM (inactive); in the assay with HCT-15, 2.05 µM; in the assay on COLO 205, 2.04 µM (inactive); with OVCAR-3, 5.51 µM (inactive); in the assay on SF-539, 6.28 µM (inactive).
Consider `COc1ccc(CCn2ccc(C)n2)c(OC)c1`, for which the GI50 in the assay on Malme-3M, with MOLT-4, in the assay on SF-268, with M14, in the assay with SW-620 and in the assay with TK-10 was > 100 µM (inactive) in each case. Moreover, the GI50 in the assay with K562 was > 100 µM (inactive); with NCI-H460, > 100 µM (inactive); in the assay with RXF 393, > 100 µM (inactive); with SK-OV-3 it was > 100 µM (inactive); with HCT-15 it was more than 100 µM; in the assay with COLO 205 it was > 100 µM (inactive). For the same molecule, the GI50 with OVCAR-3 and in the assay on SF-539 was > 100 µM (inactive) each time.
With `COc1ccc2nc3c(C(=O)NCCN(C)C)cccc3cc2c1`, the GI50 in the assay with SK-MEL-2 was 2.49 µM (inactive); in the assay with HCC 2998, 3.79 µM (inactive); with MOLT-4, 0.569 µM (active); in the assay with HL-60 it was 1.4 µM (inactive); in the assay on SF-268, 2.82 µM (inactive); with SW-620, 1.42 µM (inactive). Also, the GI50 is 2.28 µM (inactive) in the assay with HOP-92; 3.07 µM (inactive) with K562; 1.44 µM (inactive) in the assay on NCI-H226; 0.724 µM (active) with NCI-H460; 1.78 µM (inactive) with RXF 393; 2.21 µM (inactive) in the assay with SK-OV-3. For the same molecule, the GI50 in the assay with HCT-15 was 2.25 µM; in the assay with COLO 205, 0.893 µM (active); with SF-539, 3.15 µM (inactive).
With `O=C(NCCNCCO)N/N=C/c1cccc([N+](=O)[O-])c1`, the GI50 with SK-MEL-2, with Malme-3M, in the assay on MOLT-4, in the assay with HL-60, in the assay with SF-268 and with M14 was > 100 µM (inactive) in each case. Also, the GI50 in the assay with SW-620, in the assay on TK-10, with HOP-92, in the assay on K562, in the assay with NCI-H226 and in the assay on NCI-H460 was > 100 µM (inactive) throughout. Further, the GI50 in the assay on RXF 393 is > 100 µM (inactive); in the assay on SK-OV-3, > 100 µM (inactive); with HCT-15, more than 100 µM; in the assay with COLO 205, > 100 µM (inactive); with OVCAR-3, > 100 µM (inactive); in the assay on SF-539, > 100 µM (inactive).
